PubChem BioAssay (NCI)
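Interpolation was linear, between the two tested concentrations surrounding the appropriate level; five concentrations were tested over 48 hours in 96-well plates. The concentration for full growth arrest is given as TGI.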

Columns and labels:
Assay in all cases: DTP human tumour cell line panel, 48 h
[1] = system: OVCAR-8 ovarian
[2] = system: NCI-H23 lung
[3] = system: UO-31 renal
[4] = system: OVCAR-4 ovarian
[5] = system: HCT-116 colon
[6] = system: CCRF-CEM leukemia
[7] = system: HOP-18 NSCLC
[8] = system: DMS 114 small cell lung
[9] = system: SK-OV-3 ovarian
[10] = system: HOP-92 NSCLC
[11] = system: SNB-19 CNS
[12] = system: M14 melanoma
[13] = system: KM20L2 colon
[14] = system: DMS 273 small cell lung
[15] = system: OVCAR-5 ovarian
[16] = system: UACC-257 melanoma
[17] = system: SN12C renal
[18] = system: KM12 colon
[19] = system: HCC-2998 colon
[20] = system: EKVX NSCLC
[21] = system: COLO 205 colon
[22] = system: HL-60(TB) leukemia
[23] = system: U251 CNS
[24] = system: NCI-H460 lung
[25] = system: SF-268 CNS
[26] = system: RPMI-8226 leukemia
[27] = system: ACHN renal
[28] = system: LOX IMVI melanoma
[29] = system: HCT-15 colon
[30] = system: NCI-H522 lung
[31] = system: CAKI-1 renal
[32] = system: SW-620 colon
[33] = system: A498 renal
[34] = system: SF-539 CNS
[35] = system: MALME-3M melanoma
[36] = system: MOLT-4 leukemia
[37] = system: IGROV1 ovarian
[38] = system: SNB-78 CNS
[39] = system: SNB-75 CNS
[40] = system: SK-MEL-28 melanoma
[41] = system: XF 498 CNS
[42] = system: UACC-62 melanoma
[43] = system: TK-10 renal
[44] = system: NCI-H226 lung
[45] = system: A549 NSCLC
[46] = system: 786-0 renal
[47] = system: HOP-62 NSCLC
[48] = system: HT29 colon
[49] = system: SK-MEL-2 melanoma
[50] = system: SF-295 CNS
[51] = system: M19-MEL melanoma
[52] = system: OVCAR-3 ovarian
[53] = system: SK-MEL-5 melanoma
[54] = system: DLD-1 colon
[55] = system: K-562 leukemia
[56] = system: PC-3 prostate
[57] = system: HS 578T breast
[58] = system: MDA-N
[59] = system: BT-549 breast
[60] = system: DU-145 prostate
[61] = system: MDA-MB-435
[62] = system: SR leukemia
[63] = system: NCI/ADR-RES ovarian
[64] = system: MCF7 breast
[65] = system: RXF 393 renal
[66] = system: T-47D breast
[67] = system: MDA-MB-231 breast

Cc1cccc(C2=C/C(=C(\SS/C(C(=O)c3ccc(OCC(=O)O)c(Cl)c3Cl)=C3\C=C(c4cccc(C)c4)SS3)C(=O)c3ccc(OCC(=O)O)c(Cl)c3Cl)SS2)c1
TGI [1]: > 73.6 µM | TGI [2]: 38.7 µM | TGI [3]: 32.2 µM | TGI [4]: > 70.2 µM | TGI [5]: > 53.8 µM | TGI [6]: 19.4 µM | TGI [7]: 50.5 µM | TGI [8]: 17.7 µM | TGI [9]: > 100 µM | TGI [10]: 23.1 µM | TGI [11]: 43.7 µM | TGI [12]: 51.3 µM | TGI [13]: > 100 µM | TGI [14]: 83.6 µM | TGI [15]: > 86.2 µM | TGI [16]: > 77.3 µM | TGI [17]: 65.1 µM | TGI [18]: 52.9 µM | TGI [19]: > 100 µM | TGI [20]: > 100 µM | TGI [21]: 38.3 µM | TGI [22]: 4.71 µM | TGI [23]: 14.3 µM | TGI [24]: > 68.1 µM | TGI [25]: 39.6 µM | TGI [26]: 41.4 µM | TGI [27]: 37.7 µM | TGI [28]: 18 µM | TGI [29]: > 51.6 µM | TGI [30]: 8.14 µM | TGI [31]: 66.3 µM | TGI [32]: 49.8 µM | TGI [33]: 49.4 µM | TGI [34]: 39.9 µM | TGI [35]: 74.9 µM | TGI [36]: 40.2 µM | TGI [37]: 44.8 µM | TGI [38]: 80.6 µM | TGI [39]: > 83.5 µM | TGI [40]: 87.4 µM | TGI [41]: 54.6 µM | TGI [42]: 38.5 µM | TGI [43]: > 88.2 µM | TGI [44]: 35.6 µM | TGI [45]: > 100 µM | TGI [46]: 41.7 µM | TGI [47]: > 100 µM | TGI [48]: > 75 µM | TGI [49]: 39.8 µM | TGI [50]: > 85.6 µM | TGI [51]: > 60.1 µM | TGI [52]: 50.8 µM | TGI [53]: 47.8 µM | TGI [54]: > 100 µM | TGI [55]: 36.2 µM

Cn1c(=O)c2c(nc(C(=N)SCC(=O)O)n2C)n(C)c1=O
TGI [56]: > 100 µM | TGI [1]: > 100 µM | TGI [2]: > 100 µM | TGI [57]: > 100 µM | TGI [3]: > 100 µM | TGI [4]: 85.6 µM | TGI [58]: > 100 µM | TGI [5]: > 100 µM | TGI [6]: 35.8 µM | TGI [9]: > 100 µM | TGI [10]: > 100 µM | TGI [11]: > 100 µM | TGI [12]: > 100 µM | TGI [15]: > 100 µM | TGI [16]: > 100 µM | TGI [17]: > 100 µM | TGI [18]: > 100 µM | TGI [59]: > 100 µM | TGI [20]: > 100 µM | TGI [21]: 71.5 µM | TGI [22]: 52.8 µM | TGI [23]: > 100 µM | TGI [24]: > 100 µM | TGI [60]: > 100 µM | TGI [25]: > 100 µM | TGI [26]: > 100 µM | TGI [27]: > 100 µM | TGI [61]: > 100 µM | TGI [28]: > 100 µM | TGI [29]: > 100 µM | TGI [30]: > 100 µM | TGI [31]: 99 µM | TGI [32]: > 100 µM | TGI [33]: 66.7 µM | TGI [34]: > 100 µM | TGI [35]: > 100 µM | TGI [36]: 50.9 µM | TGI [62]: 80.2 µM | TGI [37]: > 100 µM | TGI [63]: > 100 µM | TGI [39]: > 100 µM | TGI [40]: > 100 µM | TGI [42]: > 100 µM | TGI [43]: > 100 µM | TGI [44]: > 100 µM | TGI [45]: > 100 µM | TGI [46]: > 100 µM | TGI [47]: > 100 µM | TGI [48]: > 100 µM | TGI [64]: > 100 µM | TGI [49]: > 100 µM | TGI [65]: > 100 µM | TGI [50]: > 100 µM | TGI [66]: > 100 µM | TGI [52]: > 100 µM | TGI [53]: 37.6 µM | TGI [67]: > 100 µM | TGI [55]: > 100 µM
